Laboratory results as given in patent US20130030001A1 (priority 2008, published 2013).
Counter-ions that a name gives are not always drawn.

biological target: T1, human muscarinic acetylcholine M3 receptor (Homo sapiens, UniProt P20309); assay: biochemical; format: binding; details: M3 binding IC50
T1 construct: expressed in transfected cells; host or cells: CHO-K1 (Chinese Hamster Ovary) cell membranes
T1 sequence (P20309 whole entry): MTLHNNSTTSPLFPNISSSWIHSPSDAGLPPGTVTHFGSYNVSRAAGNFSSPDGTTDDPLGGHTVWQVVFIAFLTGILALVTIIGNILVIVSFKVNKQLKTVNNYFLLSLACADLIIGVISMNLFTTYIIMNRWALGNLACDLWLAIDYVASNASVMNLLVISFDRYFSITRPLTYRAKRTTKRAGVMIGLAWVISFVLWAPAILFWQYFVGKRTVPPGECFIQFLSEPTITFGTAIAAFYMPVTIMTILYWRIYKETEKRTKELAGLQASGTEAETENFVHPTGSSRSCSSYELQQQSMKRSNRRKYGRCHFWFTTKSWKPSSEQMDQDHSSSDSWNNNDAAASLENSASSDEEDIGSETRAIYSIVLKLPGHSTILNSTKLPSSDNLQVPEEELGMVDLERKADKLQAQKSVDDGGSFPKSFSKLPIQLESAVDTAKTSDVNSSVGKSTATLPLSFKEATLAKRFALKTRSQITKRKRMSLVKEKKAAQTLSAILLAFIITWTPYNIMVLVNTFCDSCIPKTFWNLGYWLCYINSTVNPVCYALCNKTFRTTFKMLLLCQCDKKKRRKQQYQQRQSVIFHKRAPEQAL

Row | Compound | IC50 [nM]
1 | O=C(C[N+]12CCC(CC1)[C@@H](OC(=O)C1(c3cccs3)CCCCCC1)C2)Nc1cnccn1 [Example 11, (R)-1-(Pyrazin-2-ylcarbamoylmethyl)-3-(1-thiophen-2-yl-cycloheptanecarbonyloxy)-1-azonia-bicyclo[2.2.2]octane bromide] | < 2
2 | O=C(C[N+]12CCC(CC1)[C@@H](OC(=O)C1(c3ccccc3)CCCCCC1)C2)Nc1ccccc1 [Example 21, (R)-1-Phenylcarbamoylmethyl-3-(1-phenyl-cycloheptanecarbonyloxy)-1-azonia-bicyclo[2.2.2]octane bromide] | < 2
3 | O=C(O[C@H]1C[N+]2(CCc3cnccn3)CCC1CC2)C1(c2ccccc2)CCCCCC1 [Example 32, (R)-3-(1-Phenyl-cycloheptanecarbonyloxy)-1-(2-pyrazin-2-yl-ethyl)-1-azonia-bicyclo[2.2.2]octane bromide] | 2 to 10
4 | N#Cc1ccc(OCCC[N+]23CCC(CC2)[C@@H](OC(=O)C2(c4ccccc4)CCCCCC2)C3)cc1 [Example 40, (R)-1-[3-(4-Cyano-phenoxy)-propyl]-3-(1-phenyl-cycloheptanecarbonyloxy)-1-azonia-bicyclo[2.2.2]octane bromide] | < 2
5 | O=C(C[N+]12CCC(CC1)[C@@H](OC(=O)C1(c3ccccc3)CCCCCC1)C2)Nc1ncns1 [Example 56, (R)-3-(1-Phenyl-cycloheptanecarbonyloxy)-1-([1,2,4]thiadiazol-5-ylcarbamoylmethyl)-1-azonia-bicyclo[2.2.2]octane chloride] | 2 to 10
6 | O=C(O[C@H]1C[N+]2(CCc3ccc4c(c3)CCO4)CCC1CC2)C1(c2ccccc2)CCCCCC1 [Example 25, (R)-1-[2-(2,3-Dihydro-benzofuran-5-yl)-ethyl]-3-(1-phenyl-cycloheptanecarbonyloxy)-1-azonia-bicyclo[2.2.2]octane formate] | < 2
7 | O=C(C[N+]12CCC(CC1)[C@@H](OC(=O)C1(c3ccccc3)CCCCCC1)C2)Nc1cccc(F)c1F [Example 24, (R)-1-[(2,3-Difluoro-phenylcarbamoyl)-methyl]-3-(1-phenyl-cycloheptanecarbonyloxy)-1-azonia-bicyclo[2.2.2]octane bromide] | < 2
8 | O=C(C[N+]12CCC(CC1)[C@@H](OC(=O)C1(c3ccccc3)CCCCCC1)C2)Nc1ncccn1 [Example 50, (R)-3-(1-Phenyl-cycloheptanecarbonyloxy)-1-(pyrimidin-2-ylcarbamoylmethyl)-1-azonia-bicyclo[2.2.2]octane chloride] | < 2
9 | Cc1cc(NC(=O)C[N+]23CCC(CC2)[C@@H](OC(=O)C2(c4cccs4)CCCCCC2)C3)no1 [Example 6, (R)-1-[(5-Methyl-isoxazol-3-ylcarbamoyl)-methyl]-3-(1-thiophen-2-yl-cycloheptanecarbonyloxy)-1-azonia-bicyclo[2.2.2]octane bromide] | < 2
10 | O=C(C[N+]12CCC(CC1)[C@@H](OC(=O)C1(c3ccccc3)CCCCCC1)C2)Nc1ccc(C(F)(F)F)nn1 [Example 3, (R)-3-(1-Phenyl-cycloheptanecarbonyloxy)-1-[(6-trifluoromethyl-pyridazin-3-ylcarbamoyl)-methyl]-1-azonia-bicyclo[2.2.2]octane bromide] | 2 to 10
11 | O=C(C[N+]12CCC(CC1)[C@@H](OC(=O)C1(c3ccccc3)CCCCCC1)C2)Nc1ncco1 [Example 48, (R)-1-(Oxazol-2-ylcarbamoylmethyl)-3-(1-phenyl-cycloheptanecarbonyloxy)-1-azonia-bicyclo[2.2.2]octane bromide] | 2 to 10
12 | COc1ccc(COCC[N+]23CCC(CC2)[C@@H](OC(=O)C2(c4ccccc4)CCCCCC2)C3)cc1 [Example 36, (R)-1-[2-(4-methoxy-benzyloxy)-ethyl]-3-(1-phenyl-cycloheptanecarbonyloxy)-1-azonia-bicyclo[2.2.2]octane formate] | 2 to 10
13 | Cc1ccc(NC(=O)C[N+]23CCC(CC2)[C@@H](OC(=O)C2(c4ccccc4)CCCCCC2)C3)cc1 [Example 46, (R)-3-(1-Phenyl-cycloheptanecarbonyloxy)-1-(p-tolylcarbamoyl-methyl)-1-azonia-bicyclo[2.2.2]octane bromide] | 2 to 10
14 | O=C(NCCC[N+]12CCC(CC1)[C@@H](OC(=O)C1(c3ccccc3)CCCCCC1)C2)c1ccccn1 [Example 57, (R)-3-(1-Phenyl-cycloheptanecarbonyloxy)-1-{3-[(pyridine-2-carbonyl)-amino]-propyl}-1-azonia-bicyclo[2.2.2]octane bromide] | 2 to 10
15 | Cc1ccnc(NC(=O)C[N+]23CCC(CC2)[C@@H](OC(=O)C2(c4ccccc4)CCCCCC2)C3)c1 [Example 44, (R)-1-[(4-Methyl-pyridin-2-ylcarbamoyl)-methyl]-3-(1-phenyl-cycloheptanecarbonyloxy)-1-azonia-bicyclo[2.2.2]octane chloride] | 2 to 10
16 | O=C(C[N+]12CCC(CC1)[C@@H](OC(=O)C1(c3ccccc3)CCCCCC1)C2)Nc1cncc(F)c1 [Example 28, (R)-1-[(5-Fluoro-pyridin-3-ylcarbamoyl)-methyl]-3-(1-phenyl-cycloheptanecarbonyloxy)-1-azonia-bicyclo[2.2.2]octane chloride] | 2 to 10
17 | O=C(O[C@H]1C[N+]2(CCOCCc3ccccc3)CCC1CC2)C1(c2ccccc2)CCCCCC1 [Example 37, (R)-1-(2-Phenethyloxy-ethyl)-3-(1-phenyl-cycloheptanecarbonyloxy)-1-azonia-bicyclo[2.2.2]octane bromide] | < 2
18 | O=C(C[N+]12CCC(CC1)[C@@H](OC(=O)C1(c3ccccc3)CCCCCC1)C2)Nc1ccncc1F [Example 54, (R)-1-[(3-Fluoro-pyridin-4-ylcarbamoyl)-methyl]-3-(1-phenyl-cycloheptanecarbonyloxy)-1-azonia-bicyclo[2.2.2]octane chloride] | < 2
19 | N#Cc1ccc(COCC[N+]23CCC(CC2)[C@@H](OC(=O)C2(c4ccccc4)CCCCCC2)C3)cc1 [Example 42, (R)-1-[2-(4-Cyano-benzyloxy)-ethyl]-3-(1-phenyl-cycloheptanecarbonyloxy)-1-azonia-bicyclo[2.2.2]octane bromide] | 2 to 10
20 | Cc1cncc(NC(=O)C[N+]23CCC(CC2)[C@@H](OC(=O)C2(c4ccccc4)CCCCCC2)C3)n1 [Example 2, (R)-1-[(6-Methyl-pyrazin-2-ylcarbamoyl)-methyl]-3-(1-phenyl-cycloheptanecarbonyloxy)-1-azonia-bicyclo[2.2.2]octane bromide] | < 2
21 | O=C(C[N+]12CCC(CC1)[C@@H](OC(=O)C1(c3cccs3)CCCCCC1)C2)Nc1cccnn1 [Example 5, (R)-1-(Pyridazin-3-ylcarbamoylmethyl)-3-(1-thiophen-2-yl-cycloheptanecarbonyloxy)-1-azonia-bicyclo[2.2.2]octane bromide] | < 2
22 | Cc1cc(NC(=O)C[N+]23CCC(CC2)[C@@H](OC(=O)C2(c4ccccc4)CCCCCC2)C3)ncn1 [Example 59, (R)-1-[(6-Methyl-pyrimidin-4-ylcarbamoyl)-methyl]-3-(1-phenyl-cycloheptanecarbonyloxy)-1-azonia-bicyclo[2.2.2]octane chloride] | 2 to 10

same assay, conditions: pIC50

Row | Compound | IC50 [nM]
23 | O=C(C[N+]12CCC(CC1)[C@@H](OC(=O)C1(c3cccc(F)c3)CCCCCC1)C2)Nc1ccon1 [Example 13, (R)-3-[1-(3-Fluoro-phenyl)-cycloheptanecarbonyloxy]-1-(isoxazol-3-ylcarbamoylmethyl)-1-azonia-bicyclo[2.2.2]octane bromide] | 0.0794
24 | O=C(C[N+]12CCC(CC1)[C@@H](OC(=O)C1(c3cccs3)CCCCCC1)C2)Nc1cccnn1 [Example 5, (R)-1-(Pyridazin-3-ylcarbamoylmethyl)-3-(1-thiophen-2-yl-cycloheptanecarbonyloxy)-1-azonia-bicyclo[2.2.2]octane bromide] | 0.398

test system: not listed separately; assay: in vitro; details: human, plasma, pH 7.4

Row | Compound | fraction unbound
25 | O=C(C[N+]12CCC(CC1)[C@@H](OC(=O)C1(c3ccccc3)CCCCCC1)C2)Nc1ccccn1 [Example 15, (R)-3-(1-Phenyl-cycloheptanecarbonyloxy)-1-(pyridin-2-ylcarbamoylmethyl)-1-azonia-bicyclo[2.2.2]octane bromide] | 0.039
26 | Cc1cc(NC(=O)C[N+]23CCC(CC2)[C@@H](OC(=O)C2(c4ccccc4)CCCCCC2)C3)ccn1 [Example 20, (R)-1-[(2-Methyl-pyridin-4-ylcarbamoyl)-methyl]-3-(1-phenyl-cycloheptanecarbonyloxy)-1-azonia-bicyclo[2.2.2]octane chloride] | 0.018
27 | O=C(C[N+]12CCC(CC1)[C@@H](OC(=O)C1(c3ccccc3)CCCCCC1)C2)Nc1ccc(F)cn1 [Example 17, (R)-1-[(5-Fluoro-pyridin-2-ylcarbamoyl)-methyl]-3-(1-phenyl-cycloheptanecarbonyloxy)-1-azonia-bicyclo[2.2.2]octane chloride] | 0.024
28 | O=C(C[N+]12CCC(CC1)[C@@H](OC(=O)C1(c3cccs3)CCCCCC1)C2)Nc1cnccn1 [Example 11, (R)-1-(Pyrazin-2-ylcarbamoylmethyl)-3-(1-thiophen-2-yl-cycloheptanecarbonyloxy)-1-azonia-bicyclo[2.2.2]octane bromide] | 0.048
29 | O=C(C[N+]12CCC(CC1)[C@@H](OC(=O)C1(c3ccccc3)CCCCCC1)C2)Nc1ccccc1 [Example 21, (R)-1-Phenylcarbamoylmethyl-3-(1-phenyl-cycloheptanecarbonyloxy)-1-azonia-bicyclo[2.2.2]octane bromide] | 0.006
30 | O=C(C[N+]12CCC(CC1)[C@@H](OC(=O)C1(c3cccc(F)c3)CCCCCC1)C2)Nc1ccon1 [Example 13, (R)-3-[1-(3-Fluoro-phenyl)-cycloheptanecarbonyloxy]-1-(isoxazol-3-ylcarbamoylmethyl)-1-azonia-bicyclo[2.2.2]octane bromide] | 0.068
